Tests used:
H1 histamine receptor = molecular target: T1, H1 histamine receptor (Cavia porcellus, UniProt P31389); assay: In vitro antihistaminic activity, isolated guinea-pig ileum longitudinal muscle, histamine concentration-response shift (Schild plot); type: cell-based; settings: negative log of the molar concentration of antagonist which shifts the histamine concentration-response curve 2X to the right, 1 h incubation, read-out: pA2 (converted)
T1 construct: The longitudinal muscle was isolated from the intact ileum of guinea-pigs; from tissue; host or cells: guinea-pig ileum, longitudinal muscle (Hartly, male 250-400 g)
Method: In vitro antihistiminic activity: The longitudinal muscle was isolated from the intact ileum of guinea-pigs (Hartly, male 250-400 g) and placed in an organ bath under 300 mg tension. After one hour of equilibration, cumulative concentration-response curves (Van Rossum, J. M., Arch. Int. Pharmacodyn. Ther. 143, 299-330, 1963) to histamine were obtained. Following washing, the tissues were incubated for one hour with the test compound and then a second histamine concentration-response curve was run. Shifts to the right of the agonist concentration-response curve produced by the antagonists were used to construct Schild plots (Arunlakshana, O. and Schild, H. O., Br. J. Pharmacol: 14, 48-58, 1959). Regression of Log (dr-1) on Log [B], where dr is an equiactive response in the presence and absence of antagonist and [B] is the molar concentration of antagonist, allowed an estimate of pA2, i.e. the negative log of the concentration of antagonist which shifts the control histamine concentration-response curve 2X to the right.

[1] = antihistamines now in use; some patients; cited from earlier work
[2] = background statement; cited from earlier work

T1 sequence (P31389 whole entry): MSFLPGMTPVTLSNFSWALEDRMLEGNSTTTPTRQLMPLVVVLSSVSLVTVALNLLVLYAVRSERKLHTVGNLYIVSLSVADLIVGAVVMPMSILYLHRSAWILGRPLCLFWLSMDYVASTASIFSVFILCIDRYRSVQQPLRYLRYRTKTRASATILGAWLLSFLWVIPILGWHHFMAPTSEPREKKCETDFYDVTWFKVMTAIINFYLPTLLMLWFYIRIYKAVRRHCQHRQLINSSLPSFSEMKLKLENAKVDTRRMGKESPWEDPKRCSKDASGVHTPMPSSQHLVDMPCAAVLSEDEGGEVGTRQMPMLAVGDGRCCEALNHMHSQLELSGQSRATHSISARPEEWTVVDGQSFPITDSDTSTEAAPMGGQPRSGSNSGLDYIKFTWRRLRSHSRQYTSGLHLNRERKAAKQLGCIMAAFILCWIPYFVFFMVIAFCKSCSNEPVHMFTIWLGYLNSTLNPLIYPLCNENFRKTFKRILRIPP

| Structure (SMILES) | Kb (H1 histamine receptor) [nM] | further results |
| --- | --- | --- |
| Cc1ccc(/C(=C\CN2CCCC2)c2cccc(C(=O)O)n2)cc1 [F, 6-[3-pyrrolidino-1-(4-tolyl)prop-1E-enyl]pyridine-2-carboxylic acid] | 1.26 | – |
| O=C(O)/C=C/c1cccc(/C(=C/CN2CCCC2)c2ccc(Cl)cc2)n1 [D, (E)-3-{6-[1-(4-chlorophenyl)-3-pyrrolidinoprop-1E-enyl]-2-pyridyl}acrylicacid] | 1 | – |
| O=C(O)/C=C/c1cccc(/C(=C/CN2CCCC2)c2ccccc2)n1 [E, (E)-3-[6-(1-phenyl-3-pyrrolidinoprop-1E-enyl)-2-pyridyl]acrylic acid] | 39.8 | – |
| COc1ccc(/C(=C\CN2CCCC2)c2cccc(/C=C/C(=O)O)n2)cc1 [C, (E)-3-{6-[3-pyrrolidino-1-(4-methoxyphenyl)prop-1E-enyl]-2-pyridyl}acrylicacid] | 1.26 | – |
| CC(CN1c2ccccc2Sc2ccccc21)N(C)C (centres unmarked) [promethazine] | – | sedation or drowsiness [1]: may cause sedation or drowsiness in some patients |
| Cc1ccc(/C(=C\CN2CCCC2)c2ccccn2)cc1 [Triprolidine, (E)-1-(4-methylphenyl)-1-(2-pyridyl)-3-pyrrolidinoprop-1-ene] | – | antihistamine potency [2]: one of the most potent antihistamines available |
| Cc1ccc(/C(=C\CN(C)C)c2cccc(/C=C/C(=O)O)n2)cc1 [Compound B, (E)-3-{6-[3-Dimethylamino-1-(4-tolyl)prop-1E-enyl]-2-pyridyl}acrylic acid] | 6.31 | – |
| Cc1ccc(/C(=C\CN2CCCC2)c2cccc(CCC(=O)O)n2)cc1 [Compound A, 3-{6-[3-Pyrrolidino-1-(4-tolyl)prop-1E-enyl]-2-pyridyl}propionic acid] | 0.631 | – |

Reference: patent US4657918A, “3-[6-[3-pyrrolidino-1-(4-tolyl)prop-1e-enyl]-2-pyridyl]propionic acid and derivatives having anti-histaminic activity” (priority 1982, dated 1987)
